According to patent US10154992B2, “Compounds and methods for treating HIV infection” (THE REGENTS OF THE UNIVERSITY OF CALIFORNIA, priority 2016, dated 2018):
Values after ≈ are worked out from the molar mass of the structure shown. Where two headings read alike, the source gives them in different places.

Columns and labels:
[1] = Aqueous solubility pH 7.4; assay type: physicochemical; conditions: aqueous solution, pH 7.4, pH 7.4, aqueous buffer
Text: We next evaluated analogs 2b, 2f, 4a, and 4e in a panel of standard in vitro ADME assays to assess drug-like properties and the potential for efficacy in animals.

[2] = MTT cell viability in Jurkat replication assay; assay type: cell-based; conditions: human, Jurkat (E6-1) cells, pH 7.4; Jurkat infectivity assay; read-out: TC50 (MTT cell viability)
Description: Virus spreading assay. Jurkat (E6-1) cells (NIH AIDS Reagent Program) were cultured in RPMI media supplemented with 25 mM HEPES pH 7.4, 10% heat-inactivated fetal calf serum (Hyclone, Waltham Mass.), and 1% penicillin/streptomycin. 2.5×10^5 Jurkat cells were inoculated with 250 pg p24 in 250 μl media in a 96-well flat bottom polystyrene cell culture microplate. Input virus was removed after 18 hours via washing cells phosphate-buffered saline (PBS). Cells were resuspended in 250 μl of media containing compounds at the described concentrations. Cells were incubated at 37° C., 5% CO2 and supernatant samples were removed every 48 hours and replaced with fresh media containing the compounds. Viral replication was quantified using ELISA to quantify p24 viral capsid protein in the culture supernatant. Mouse monoclonal and rabbit polyclonal α-p24 antibodies used in the ELISA were obtained from the NIH AIDS Reagent Program. Toxicity was monitored using the MTT cell viability assay (Mosmann, T. (1983). J Immunol Methods 65, 55-63).

[3] = tested on: HIV-1 provirus in U1 cells; experiment: U1 activation (latency) assay, p24 ELISA; assay type: cell-based; conditions: for IC50: Human immunodeficiency virus 1
Summary of the method: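 PHA-activated U1 cells (latent integrated HIV-1 provirus, 250,000/well) treated with compound at final 1 to 10,000 nM for 3 days; virus production measured by p24 ELISA of cell-free supernatant. Cell viability assessed by MTT in parallel cultures.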

[4] = Human liver microsome stability; assay type: in vitro ADME; conditions: human liver microsomes; read-out: HLM T1/2
Text: The more lipophilic analogs 4a and 4e also appear more prone to oxidative metabolism in the presence of human liver microsomes. This is perhaps unsurprising given the presence of methoxyphenyl (4a) and benzylic methylene (4e) functions, both potential sites of oxidative metabolism.

NC(=O)c1cc2c(-c3ccc4c(c3)CCO4)cncc2s1 [Compound 4e, 4-(2,3-dihydro-1-benzofuran-5-yl)thieno[2,3-c]pyridine-2-carboxamide]
solubility [1]: 0.28 µM (≈ 0.083 µg/mL)
CC50 [2]: < 40000 nM
potency in the U1 assay [3]: low-nM potency
IC50 ([3]; Table 2, read-out: U1 cell IC50): < 100 nM
IC50 ([3]; read-out: IC50 in the U1 assay): 9 nM
half-life [4]: 18 min
